Values after ≈ are worked out from the molar mass of the structure shown.
Key:
Hepatitis C virus [1] = test: Antiviral activity against HCV 1b in Huh-7/2209-23 cells by replicon assay; type: functional, organism-based, Hepacivirus hominis; settings: genotype 1b
[2] = Aqueous solubility of compound; type: physicochemical; settings: buffer
Hepatitis C virus [3] = test: Inhibition of HCV 1b NS5B polymerase; set-up: species or system Hepatitis C virus subtype 1b

| Structure (SMILES) | IC50 (Hepatitis C virus [1]) | solubility [2] | IC50 (Hepatitis C virus [3]) |
| --- | --- | --- | --- |
| O=S1(=O)N=C(c2nc(Cc3ccc(F)cc3)c3ccccc3c2O)c2cccc(-c3cccc(O)c3)c21 | 1100 nM | 3 µg/mL (≈ 5.88 µM) | 350 nM |
| O=c1cccc(-c2cccc3c2S(=O)(=O)N=C3c2nc(Cc3ccc(F)cc3)c3ccccc3c2O)[nH]1 | 400 nM | 6 µg/mL (≈ 11.7 µM) | 730 nM |
| O=S1(=O)N=C(c2nc(Cc3ccc(F)cc3)c3ccccc3c2O)c2cccc(-c3cncnc3)c21 | 380 nM | 9 µg/mL (≈ 18.1 µM) | 1800 nM |
| O=c1ccc(-c2cccc3c2S(=O)(=O)N=C3c2nc(Cc3ccc(F)cc3)c3ccccc3c2O)c[nH]1 | 75 nM | 7 µg/mL (≈ 13.7 µM) | 410 nM |
| O=S1(=O)N=C(c2nc(Cc3ccc(F)cc3)c3ccccc3c2O)c2cccc(-c3cn[nH]c3)c21 | 780 nM |  | 720 nM |
| CC(=O)Nc1cccc(-c2cccc3c2S(=O)(=O)N=C3c2nc(Cc3ccc(F)cc3)c3ccccc3c2O)c1 | 940 nM | 17 µg/mL (≈ 30.8 µM) | 530 nM |

Other lines, results leading:

| IC50 (Hepatitis C virus [1]) | solubility [2] | IC50 (Hepatitis C virus [3]) | Structure (SMILES) |
| --- | --- | --- | --- |
| 440 nM | 16 µg/mL (≈ 38.2 µM) |  | O=S1(=O)N=C(c2nc(Cc3ccc(F)cc3)c3ccccc3c2O)c2ccccc21 |
| 430 nM | 2 µg/mL (≈ 4.42 µM) | 580 nM | O=S1(=O)N=C(c2nc(Cc3ccc(F)cc3)c3ccccc3c2O)c2cccc(Cl)c21 |
|  |  | 4500 nM | CC(C)CCc1nc(C2=NS(=O)(=O)c3ccccc32)c(O)c2ccccc12 |
| 800 nM | 41 µg/mL (≈ 82.9 µM) | 3900 nM | O=S1(=O)N=C(c2nc(Cc3ccc(F)cc3)c3ccccc3c2O)c2cccc(-c3ccccc3)c21 |
| 760 nM | 40 µg/mL (≈ 89.2 µM) | 610 nM | COc1cccc2c1S(=O)(=O)N=C2c1nc(Cc2ccc(F)cc2)c2ccccc2c1O |
| 150 nM | 3 µg/mL (≈ 6.05 µM) | 550 nM | O=S1(=O)N=C(c2nc(Cc3ccc(F)cc3)c3ccccc3c2O)c2cccc(-c3cccnc3)c21 |
| 2700 nM | 10 µg/mL (≈ 26.4 µM) | 1000 nM | O=S1(=O)N=C(c2nc(CCC3CC3)c3ccccc3c2O)c2ccccc21 |
|  |  | 47000 nM | O=S1(=O)N=C(c2nc(Cc3ccccc3)c3ccccc3c2O)Nc2ccccc21 |
|  |  | 51000 nM | CC(C)CCc1nc(C2=NS(=O)(=O)c3ccccc3N2)c(O)c2ccccc12 |

— ChEMBL document CHEMBL1154535, “3-Hydroxyisoquinolines as inhibitors of HCV NS5b RNA-dependent RNA polymerase” (Bioorg Med Chem Lett, 2009)
